Test results from patent US20230285347A1, “Preterm Labour with Prostaglandin E2 Receptor Agonists” (IMPERIAL COLLEGE INNOVATIONS LIMITED, priority 2020, published 2023).

Columns and labels:
[1] = target: T1, human FLAG-tagged EP2 (Homo sapiens, UniProt P43116); test: cAMP induction in HEK 293 cells stably expressing EP2 (Gαs readout); type: cell-based; settings: HEK 293 EP2 cells; 5 minutes of stimulation; no significant difference between ligands; FIG. 2
T1 construct: FLAG; expressed in transfected cells
Protocol: EP2 is a dually coupled GPCR capable of activating downstream signalling pathways via Gαs (anti-labour inducing) and Gαq/11 (pro-labour inducing).
HEK 293 cells were maintained in DMEM (Dulbecco's Modified Eagle Medium) containing 10% fetal bovine serum and 100 μ/ml penicillin-streptomycin, and cultured in 75 cm flasks at 37° C. in 95% air and 5% CO2. Cells at 95% confluency were passaged using 0.25% trypsin with 0.02% EDTA in phosphate-buffered saline (PBS).
(§1) Confluent myometrial cells were treated with/without OT (100 nM) for 1 hour before 3 PBS washes and the addition of […] IBMX (3-isobutyl-1-methylxanthine) in PBS for 5 minutes at 37° C. This was exchanged for 0.5 μM IBMX in PBS plus either DMSO, butaprost (10 μM), AH13205 (10 μM) or PGN9856i (100 nM) for […]. Cells were lysed in Cisbio cAMP lysis buffer with 0.2% TritonX-100 and centrifuged for 15 minutes at 16,000 g. Lysates were normalized to protein concentration determined by Coomassie (Bradford) Protein Assay Kit and analysed as per manufacturers' protocol (Cisbio Gαs dynamic assay) using a PHERAstar FSX.

[2] = target: T2, human FLAG-EP2 (Homo sapiens, UniProt P43116); test: Intracellular Ca2+ release in HEK 293 cells stably expressing EP2 (Fluo-4, confocal; Gαq/11 readout); type: cell-based; settings: HEK 293 EP2 cells; butaprost 10 μM, AH13205 10 μM, PGN9856i 100 nM; vs vehicle; FIG. 3
T2 construct: FLAG; expressed in transfected cells
Protocol: To measure Gαq/11 activation, HEK 293 cells stably expressing human FLAG-EP2 were pre-labelled with a Ca2+ indicator dye and acutely stimulated with each ligand.
HEK 293 cells, prepared following the same methodology as outlined in Example 1, were seeded onto Mattek dishes with 14 mm by 1.5 mm glass coverslips. Cells were incubated with Fluo-4am Ca2+ indicator (ThermoFisher) as per manufacturer's instructions. […]. Time-series images were acquired using a Leica SP5 confocal microscope, Leica LAS AF image acquisition software and a 488 nm excitation laser. HEK cells were imaged using a 10× dry objective. EP2 agonists (butaprost 10 μM, AH13205 10 μM or PGN9856i 100 nM) were added following measurement of basal fluorescence. Raw files were analysed using Fiji Time series analyser plugin to find the maximal fluorescent intensity, which was then averaged across cells in each condition.
The maximal fluorescence intensity was measured by live confocal microscopy.

[3] = target: T2, human FLAG-EP2; test: PGE2 release by ELISA in HEK 293 cells stably expressing EP2; type: cell-based; settings: HEK 293 EP2 cells; 6 hours; butaprost 10 μM, AH13205 10 μM, PGN9856i 100 nM; FIG. 4
Protocol: COX-2 is an inflammatory mediator that drives PGE2 production. The inventors had previously shown EP2-dependent COX-2 release to be downstream of Ca2+ release in primary human myometrium and that 6-hour agonist treatment is necessary for increasing COX-2 levels and PGE2 secretion (Kandola et al, 2014). HEK 293 cells stably expressing human FLAG-EP2 were stimulated for 6 hours with an EP2 agonist (butaprost 10 μM, AH13205 10 μM or PGN9856i 100 nM) or DMSO. 1 mL media was collected from COX-2 experiments and immediately frozen at −80 degrees Celsius. […]

[4] = target: T3, EP2 (Homo sapiens, UniProt P43116); test: Intracellular cAMP in primary human myocytes from term pregnant non-labouring myometrium; type: cell-based; settings: butaprost 10 μM, AH13205 10 μM, PGN9856i 100 nM, FIG. 5
T3 construct: primary human myocytes cultured from term pregnant, non-labouring, myometrium; endogenous in cells; host or cells: primary human myometrial cells (myocytes) cultured from pregnant myometrium
Protocol: In the myometrium EP2 is an important regulator of parturition. To assess if PGN9856i, butaprost and AH13205 induce similar second messenger profiles in the myometrium as HEK 293 cells, primary human myocytes cultured from term pregnant, non-labouring, myometrium, were treated with each ligand and intracellular cAMP, calcium and PGE2 release was measured.
Myometrial tissue was acquired at St. Mary's hospital, Queen Charlotte and Chelsea hospital and Charing Cross hospital, London. Tissue was obtained from women provided with informed written consent with the approval from the Riverside Research Ethics Committee (RREC 3357, 1997-5089, 19/LO/1657) and experiments were carried out under the committee's guidelines and recommendations. Tissues were obtained from term (38+0-40 weeks gestation) pregnant women undergoing elective caesarean from the upper margin of the incision made at the lower segment of the uterus, before or after the onset of labor. Tissues taken from women in early labour (<3 cm cervical dilation) or late labour (>3 cm cervical dilation) with/without induction with syntocinon, an oxytocin analogue. Tissue was only taken from uncomplicated, singleton pregnancies.
Tissue was stored at 4° C. in phosphate buffered saline until fine dissection with scalpels and dissociation at 37° C. for 1 hour in a sterile-filtered mix of Dulbecco's modified Eagle's medium (DMEM) (Sigma Aldrich)/Ham's F-12 Nutrient Mixture (Sigma Aldrich) and serum-free DMEM (Sigma Aldrich) (1:1 v/v) containing collagenase 1A (Sigma Aldrich)(1 mg/ml), collagenase X (Sigma Aldrich)(1 mg/ml) and bovine serum albumin (Sigma Aldrich) (2 mg/ml). […]
Confluent myometrial cells were treated with/without OT (100 nM) for 1 hour before 3 PBS washes and the addition of […] IBMX (3-isobutyl-1-methylxanthine) in PBS for 5 minutes at 37° C. […] Lysates were normalized to protein concentration determined by Coomassie (Bradford) Protein Assay Kit and analysed as per manufacturers' protocol (Cisbio Gαs dynamic assay) using a PHERAstar FSX.

[5] = target: T3, EP2; test: cAMP in non-labouring myometrial cells with/without oxytocin pre-treatment; type: cell-based; settings: OT pre-treatment 1 hour, 100 nM; butaprost 10 μM, AH13205 10 μM, PGN9856i 100 nM; FIG. 10
Protocol: Myometrial cells with/without oxytocin (OT) pre-treatment (1 hour, 100 nM) were treated with IBMX (5 minutes, 0.5 mM) before 1 minute stimulation with IBMX with/without either DMSO, butaprost (10 μM), AH13205 (10 μM) or PGN9856i (100 nM). cAMP concentrations were normalised to protein. Each patient's data normalised to butaprost response and shown as mean±SEM, n=6. One-sample t-test: #p<0.05. ##p<0.01. One-way ANOVA with Sidak's multiple comparison post-hoc test: **p<0.01.
as §1

[6] = target: T3, EP2; test: Intracellular calcium in myometrial cells with/without oxytocin pre-treatment; type: cell-based; settings: OT pre-treatment 1 hour, 100 nM; butaprost 10 μM, AH13205 10 μM, PGN9856i 100 nM; FIG. 11
Protocol: Intracellular calcium response in myometrial cells with/without OT pre-treatment (1 hour, 100 nM) stimulated with butaprost (10 μM), AH13205 (10 μM) or PGN9856i (100 nM). Data are the mean of the maximum fluorescence intensity for each cell measured normalised to background (F-FO). Shown as fold-change over butaprost response. One-way ANOVA with Dunnett's multiple comparison post-hoc test: ##p<0.01. One-sample t-test: *p<0.05.

[7] = tested on: β-adrenergic receptor; test: cAMP signalling in myometrial cells from different labouring groups, β-adrenergic agonist; type: cell-based, human; settings: isoproterenol 10 μM; all labouring groups; FIG. 8
Protocol: Myometrial cells from different labouring groups were treated with IBMX (5 minutes, 0.5 mM) before 1 minute stimulation with IBMX with/without butaprost (10 μM) or isoproterenol (10 μM). cAMP concentrations were normalised to protein. Data shown as mean±SEM, L−n=4. All other groups n=5. Each treatment compared to L− using one-way ANOVA with Dunnett's multiple comparison post-hoc test: **p<0.01, ***p<0.001, ****p<0.0001.

T3 sequence (P43116 whole entry): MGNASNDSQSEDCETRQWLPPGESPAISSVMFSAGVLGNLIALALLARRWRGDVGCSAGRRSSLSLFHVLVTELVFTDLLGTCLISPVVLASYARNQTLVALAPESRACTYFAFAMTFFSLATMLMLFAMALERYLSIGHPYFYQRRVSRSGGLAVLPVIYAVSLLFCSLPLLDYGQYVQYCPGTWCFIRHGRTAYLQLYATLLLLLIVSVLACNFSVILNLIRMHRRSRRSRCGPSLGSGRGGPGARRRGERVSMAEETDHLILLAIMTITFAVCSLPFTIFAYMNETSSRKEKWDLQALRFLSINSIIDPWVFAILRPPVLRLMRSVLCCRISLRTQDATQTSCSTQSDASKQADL
T2 sequence (P43116 whole entry): as above
T1 sequence (P43116 whole entry): as above

Row | SMILES | cAMP efficacy at the maximal dose of each ligand [1] | intracellular Ca2+ release (maximal fluorescence intensity) [2] | PGE2 levels [3] | release of intracellular cAMP [4] | effect of OTR activation on ligand's ability to increase intracellular cAMP [5] | calcium response with OT pre-treatment [6] | agonist-induced cAMP signalling in labouring groups vs non-labouring [7]
1 | CCCCCC(O)c1ccc(C2CCC(=O)C2CCCCCCC(=O)O)cc1 (stereo not shown) [AH13205] | equally efficacious | enhanced Ca2+ significantly above vehicle | efficacious activators of the pathway | able to elicit release of intracellular cAMP | significantly reduced | significantly enhance the calcium response | –
2 | CC(C)NCC(O)c1ccc(O)c(O)c1 (stereo not shown) [isoproterenol] | – | – | – | – | – | – | but not isoproterenol-induced cAMP signalling, was significantly attenuated
